Source: PubChem BioAssay (NCI)
Several values for one entry are separate records, joined by “and”; a condition that tells them apart may be missing. Identical values can stand only once.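 1) Cells in 96-well plates. 2) Compound, 48 h, 5 concentrations. 3) Linear interpolation between surrounding doses. 4) Unreached endpoint = highest concentration. Here, GI50 denotes the concentration required for 50% inhibition of growth. TGI is the concentration that stops growth completely.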

How the values were obtained:
Experiment in all cases: NCI anticancer screen, dose series, 48 h
A549 NSCLC = system: A549 NSCLC
DU-145 prostate = system: DU-145 prostate
HCC-2998 colon = system: HCC-2998 colon
HT29 colon = system: HT29 colon
MALME-3M melanoma = system: MALME-3M melanoma
MDA-MB-435 = system: MDA-MB-435
NCI-H226 lung = system: NCI-H226 lung
NCI/ADR-RES ovarian = system: NCI/ADR-RES ovarian
RPMI-8226 leukemia = system: RPMI-8226 leukemia
SN12C renal = system: SN12C renal

Row | Structure (SMILES) | TGI (A549 NSCLC) [µM] | TGI (DU-145 prostate) [µM] | TGI (HCC-2998 colon) [µM] | TGI (HT29 colon) [µM] | TGI (MALME-3M melanoma) [µM] | TGI (MDA-MB-435) [µM] | TGI (NCI-H226 lung) [µM] | TGI (NCI/ADR-RES ovarian) [µM] | TGI (RPMI-8226 leukemia) | TGI (SN12C renal) [µM] | GI50 (A549 NSCLC) [µM] | GI50 (DU-145 prostate) [µM] | GI50 (HCC-2998 colon) [µM] | GI50 (HT29 colon) [µM] | GI50 (MALME-3M melanoma) [µM] | GI50 (MDA-MB-435) [µM] | GI50 (NCI-H226 lung) [µM] | GI50 (NCI/ADR-RES ovarian) [µM] | GI50 (RPMI-8226 leukemia) | GI50 (SN12C renal) [µM]
1 | C/C=C(\N=C=S)C(=O)OC1C(COC(C)=O)OC([C@]2(O)CC(=O)C(=N)C(C(=O)O)=C2O)C(O)C1OC1CC(OC)C(O)([C@@H](C)OC(=O)[C@@H](C)CC)C(C)O1 (stereo partly specified) | > 80.6 | 39.2 | 40.1 | 23.6 | 22.8 | 35.7 | 39.5 | > 100 | 7.19 µM | 40 | – | – | – | – | – | – | – | – | – | –
2 | C=CCn1c2ccccc2c2c3c(c4c5ccccc5n(CC=C)c4c21)C(=O)N(O)C3=O | 55.4 | > 100 | 34 | 4.9 | 26.7 | 29.6 | 42.2 | 21.9 | 10.6 µM | 13.2 | 4.47 | 3.65 | 4.94 | 2.02 | 6.91 | 4.45 | 6.36 | 3.43 | 2.51 µM | 3.36
3 | C=C1c2nc3ccccc3n2C=C(c2cccc(Cl)c2)N1Cc1ccc(OC)cc1 | > 100 | > 53.5 | 13.5 | 53.2 | 72 | – | 30 | 5.49 | 5.75 µM | 50.3 | 3.98 | 1.8 | 2.32 | 7.15 | 0.717 | 0.158 | 4.5 | 0.441 | 0.361 µM | 1.26
4 | CN1CCC2(CC1)N=C(SCC(=O)Nc1cnc3ccccc3c1)C(c1ccc(Br)cc1)=N2 | 17.4 | 10.4 | 3.42 | 3.64 | 3.36 | 3.21 | 26.2 | 5.76 | 4.9 µM | 4.99 | 5.01 | 3.24 | 1.85 | 1.85 | 1.78 | 1.72 | 10.4 | 2.27 | 2.12 µM | 2.1
5 | N#C/C(=C\c1cc(O)c(O)c(O)c1)C(N)=O | > 100 | > 100 | > 100 | > 100 | > 100 | > 100 | > 100 | > 100 | > 100 µM | > 100 | – | – | – | – | – | – | – | – | – | –
6 | CC1=CC(=O)N(c2cccc3c(N4C(=O)C=C(C)C4=O)cccc23)C1=O | > 100 | 14.4 | 34.3 | 8.1 | 9.33 | > 37.1 | > 63.8 | > 89 | 19 µM | 26.5 | 32.5 | 4.08 | 18.4 | 2.73 | 3.13 | 3.13 | 23.1 | 10.4 | 3.71 µM | 8.62
7 | COc1ccc2c(c1)C(=Nc1ccc(F)c(Cl)c1)c1c-2c(Nc2ccc(F)c(Cl)c2)nc2ccccc12 | > 100 | > 100 | > 100 | > 100 | > 100 | > 100 | > 77.6 | > 72.9 | > 100 µM | > 67 | > 74 | > 100 | > 100 | > 100 | > 100 | > 100 | 39 | 29.6 | > 60.4 µM | 33.8
8 | c1ccc(-c2[nH]ncc2-c2ccnc(-c3ccc(OCCN4CCOCC4)cc3)c2)nc1 | > 25 | > 25 | > 25 | > 25 | > 25 | > 25 | > 25 | > 25 | > 25 µM | > 25 | > 25 | > 25 | > 25 | > 25 | > 25 | > 25 | > 25 | > 25 | > 25 µM | > 25
9 | O=C1/C(=C\c2ccc(F)cc2)CN(C(=O)c2ccccc2F)C/C1=C\c1ccc(F)cc1 | 8.75 | 4.15 | 3.32 | 1.35 | 4.09 | 2.06 | 12.8 | 16.4 | 0.817 µM | 3.37 | 2.59 | 2.07 | 1.81 | 0.373 | 2 | 0.547 | 3.41 | 2.8 | 0.137 µM | 1.68
10 | Cc1ccc(N(C=O)c2c([N+](=O)[O-])cc([N+](=O)[O-])c3c2=[N+]([O-])CN=3)cc1 | > 100 | 72.9 | 43.3 | > 100 | 43.1 | > 100 | > 100 | 92.2 | 69.2 µM | > 100 | – | – | – | – | – | – | – | – | – | –
11 | CCc1nc(C)cn1C(=O)OCc1nc2nc(Cl)nc(N3CCOCC3)c2[nH]1 | 4.36 | 2.52 | 3.44 | 4.04 | 2.95 | 2.71 | 4.11 | 9.02 | 3.1 µM | 2.74 | 1.83 | 1.22 | 1.84 | 1 | 1.56 | 1.36 | 1.84 | 2.64 | 0.696 µM | 1.35
12 | Oc1ccc2c(=S)cc(-c3ccc(Br)cc3)oc2c1O | – | > 100 | 7.03 | 25.9 | 6.06 | > 100 | 39.4 | 6.05 | 18.3 µM | 12.3 | 3.26 | 2.67 | 2.28 | 4.56 | 1.87 | 2.98 | 7.22 | 1.43 | 1.32 µM | 2.61
13 | CNC(=O)ON(C(C)=O)C(=O)NC | 283 | 135 | 272 | 242 | 129 | 50.2 | 230 | 266 | > 77.2 µM and 111 µM | 166 | – | – | – | 94.1 | > 78.6 | – | – | – | 41.4 µM and 25.2 µM | –
